Our source for the IC50 values is ChEMBL document CHEMBL1140542, “Cryptadines A and B, novel C27N3-type pentacyclic alkaloids from Lycopodium cryptomerinum” (Bioorg Med Chem, 2007).

The experiment has as its target T1, Acetylcholinesterase (Bos taurus, UniProt P23795).
T1 sequence (P23795 whole entry): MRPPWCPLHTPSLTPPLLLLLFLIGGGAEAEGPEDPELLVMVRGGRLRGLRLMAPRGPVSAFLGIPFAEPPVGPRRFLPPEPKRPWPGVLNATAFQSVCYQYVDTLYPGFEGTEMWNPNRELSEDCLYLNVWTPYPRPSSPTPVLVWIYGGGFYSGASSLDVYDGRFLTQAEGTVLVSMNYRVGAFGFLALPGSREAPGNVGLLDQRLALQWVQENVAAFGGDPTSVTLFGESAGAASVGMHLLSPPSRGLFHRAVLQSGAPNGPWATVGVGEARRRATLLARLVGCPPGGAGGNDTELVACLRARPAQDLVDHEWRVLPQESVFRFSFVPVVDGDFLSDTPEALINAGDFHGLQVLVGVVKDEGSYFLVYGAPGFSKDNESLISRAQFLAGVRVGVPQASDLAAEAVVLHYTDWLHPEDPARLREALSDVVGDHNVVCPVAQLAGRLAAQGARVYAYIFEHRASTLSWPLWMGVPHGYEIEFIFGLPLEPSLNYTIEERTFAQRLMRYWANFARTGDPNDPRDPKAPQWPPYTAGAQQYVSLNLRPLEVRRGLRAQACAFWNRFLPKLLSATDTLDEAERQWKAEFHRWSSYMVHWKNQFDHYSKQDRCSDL
Kind of experiment: Inhibition of bovine acetylcholinesterase.

pIC50: −log10 of the molar value.

One may read the pIC50 as the negative decadic logarithm of the IC50, by convention in mol/L. High values mean a small IC50, low ones a large IC50. With `CC(=O)N1CCCC2=C(C[C@H]3CCC[C@H](CC4=C5CCCN(C)[C@H]5C[C@@H](C)C4)N3)C[C@H](C)C[C@@H]21` [CRYPTADINE A], the negative-log IC50 (pIC50) is 3.97.

The compound `CC(=O)N1CCCC2=C(C[C@H]3CCC[C@H](CC4=C5CCCN(C)[C@H]5C[C@H](C)C4)N3)C[C@H](C)C[C@@H]21` [CRYPTADINE B] had a negative logarithm of the IC50 (pIC50) of 4.73.
